From ChEMBL document CHEMBL5584249, “Machine learning-based QSAR and LB-PaCS-MD guided design of SARS-CoV-2 main protease inhibitors” (Bioorg Med Chem Lett, 2024)

The molecules below were run against Replicase polyprotein 1ab (Severe acute respiratory syndrome coronavirus 2, UniProt P0DTD1) (assay: Inhibition of recombinant SARS CoV-2 main protease by FRET assay). Conditions: not given.

| Structure (SMILES) | pIC50 |
| --- | --- |
| O=c1c2ccccc2[se]n1-c1ccc(Br)cc1 | 5.556 |
| CCc1ccc(-n2[se]c3ccccc3c2=O)cc1 | 5.209 |
| COc1ccc(F)cc1-n1[se]c2ccccc2c1=O | 5.481 |
| N#Cc1cccc(-n2[se]c3ccccc3c2=O)c1 | 6.42 |
| O=c1c2ccccc2[se]n1-c1ccc(F)cc1 | 5.556 |
| O=c1c2ccccc2[se]n1-c1cc(Cl)cc(Cl)c1 | 6.194 |
| O=c1c2ccccc2[se]n1-c1cccc(C(F)(F)F)c1 | 5.558 |
| COc1cc(F)ccc1-n1[se]c2ccccc2c1=O | 5.745 |
| O=c1c2ccccc2[se]n1-c1c(F)cccc1F | 5.68 |
| O=c1c2ccccc2[se]n1Cc1ccc(F)cc1 | 6 |
| Cc1ccccc1-n1[se]c2ccccc2c1=O | 5.129 |
| Cc1ccc(-n2[se]c3ccccc3c2=O)cc1 | 5.64 |
| COc1ccc(-n2[se]c3ccccc3c2=O)cc1 | 5.903 |
| COc1ccc(Cn2[se]c3ccccc3c2=O)c(OC)c1 | 6.215 |
| O=c1c2ccccc2[se]n1-c1cccc(Cl)c1 | 6.167 |

Same assay, conditions: read-out: IC50

| Structure (SMILES) | IC50 |
| --- | --- |
| COc1ccc2[se]n(-c3ccccc3)c(=O)c2c1 | 6.4 µM |
| O=c1c2ccccc2[se]n1-c1ccc(C(F)(F)F)cc1 | 0.9 µM |
| CCCCCCCc1ccc(-n2[se]c3ccccc3c2=O)cc1 | 5.56 µM |
| CCCCCCCCc1ccc(-n2[se]c3ccccc3c2=O)cc1 | 2.69 µM |

Same assay, conditions: read-out: pIC50 (converted)

| Structure (SMILES) | IC50 |
| --- | --- |
| COc1ccc2[se]n(-c3ccccc3)c(=O)c2c1 | 6.18 µM |
| O=c1c2ccccc2[se]n1-c1ccc(C(F)(F)F)cc1 | 0.883 µM |
